Tests used:
[1] = system: RKO (RKOp27) human colon adenocarcinoma cells; assay: Alamar Blue cell viability assay, anti-proliferative/cytotoxic activity, RKO p27 uninduced; format: cell-based; details: RKOp27, 72 h, proliferating cells, absence of the inducer Ponasterone A, 72 hours incubation
Procedure, shortened: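 RKOp27 colon adenocarcinoma subclones, uninduced, seeded at 4000 cells/well and treated 24 h later with semi-log compound dilutions in DMEM with 10% FCS, in quadruplicate. After 72 h at 37 °C, 5% CO2, viability read by Alamar Blue fluorescence (544/590 nm) relative to untreated cells; IC50 taken from concentration-effect curves.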

[2] = system: RKO colon adenocarcinoma cells (RKOp27) arrested by expression of ectopic p27Kip1; assay: Alamar Blue cell viability assay, cell cycle specific mode of action, RKO p27 induced (arrested by Ponasterone A-induced p27Kip1); format: cell-based; details: Homo sapiens, RKOp27, 72 h, cells arrested by p27Kip1 induced with 10 μM Ponasterone A, 72 hours incubation
Procedure, shortened: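 RKOp27 cells were seeded at 16000 per well in DMEM/10% FCS with 10 μM Ponasterone A to induce p27Kip1 arrest, then given compound dilutions 24 h later for 72 h at 37 °C. Viability was read by Alamar Blue fluorescence (544/590 nm) as % of untreated cells. Arrested cells were compared with proliferating cells grown without inducer.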

SMILES | IC50 [1] | IC50 [2]
N#Cc1c(NC(=O)c2ccccc2)sc2c1CCN(C(=O)OCCO)C2 [Compound 97, 3-Cyano-2-[(1-phenyl-methanoyl)-amino]-4,7-dihydro-5H-thieno[2,3-c]pyridine-6-carboxylic acid 2-hydroxy-ethyl ester] | ≤ 3 µM | > 100 µM
CCNC(=O)N1CCc2c(sc(NC(=O)c3ccccc3)c2C#N)C1 [Compound 98, 3-Cyano-2-[(1-phenyl-methanoyl)-amino]-4,7-dihydro-5H-thieno[2,3-c]pyridine-6-carboxylic acid ethylamide] | ≤ 3 µM | > 100 µM
N#Cc1c(NC(=O)c2ccccc2)sc2c1CCN(C(=O)NCCc1ccccn1)C2 [Compound 99, 3-Cyano-2-[(1-phenyl-methanoyl)-amino]-4,7-dihydro-5H-thieno[2,3-c]pyridine-6-carboxylic acid (2-pyridin-2-yl-ethyl)-amide] | ≤ 3 µM | > 100 µM
CCOCCCNC(=O)N1CCc2c(sc(NC(=O)c3ccccc3)c2C#N)C1 [Compound 100, 3-Cyano-2-[(1-phenyl-methanoyl)-amino]-4,7-dihydro-5H-hieno[2,3-c]pyridine-6-carboxylic acid (3-ethoxy-propyl)-amide] | ≤ 3 µM | > 100 µM
CCCCCSC(=O)N1CCc2c(sc(NC(=O)c3ccccc3)c2C#N)C1 [Compound 101, 3-Cyano-2-[(1-phenyl-methanoyl)-amino]-4,7-dihydro-5H-thieno[2,3-c]pyridine6-carbothioic acid S-pentyl ester] | ≤ 3 µM | > 100 µM
COC(=O)CCSC(=O)N1CCc2c(sc(NC(=O)c3ccccc3)c2C#N)C1 [Compound 102, 3-(1{3-Cyano-2-[(1-phenyl-methanoyl)-amino]-4,7-dihydro-5H-thieno[2,3-c]pyridin-6-yl}-methanoylsulfanyl)-propionic acid methyl ester] | ≤ 3 µM | > 100 µM
N#Cc1c(NC(=O)c2ccccc2)sc2c1CCN(C(=O)SCCC(=O)O)C2 [Compound 103, 3-(1-{3-Cyano-2-[(1-phenyl-methanoyl)-amino]-4,7-dihydro-5H-thieno[2,3-c]pyridin-6-yl}-methanoylsulfanyl)-propionic acid] | ≤ 3 µM | > 100 µM

Reference: patent US7714134B2, “Compounds and use of tetrahydropyridothiophenes” (4SC AG, priority 2004, dated 2010)
